The text below walks through data of ChEMBL document CHEMBL4196012 (Eur J Med Chem, 2018).

Structures are written as SMILES. Converted amounts (≈) assume the structure as drawn. Where only a bound is given, the exact number is not on record here.

The subject of experiment [1] is Escherichia coli. Nature of the experiment: Antibacterial activity against Escherichia coli ATCC […] by CLSI agar dilution method. It counts as functional. For orientation: In agar dilution the substance is mixed into plates at graded concentrations.
Experiment [2] relates to Bacillus subtilis. Nature of the experiment: Antibacterial activity against Bacillus subtilis NCDC 71 after overnight incubation by single disc method. Format: functional.
For experiment [3], the system named is Staphylococcus aureus. Nature of the experiment: Antibacterial activity against methicillin-sensitive Staphylococcus aureus by CLSI agar dilution method. Format: functional.
Experiment [4] relates to Escherichia coli. Put plainly: Antibacterial activity against Escherichia coli NCDC 134 after overnight incubation by single disc method. Format: functional.
Experiment [5] deals with Pseudomonas aeruginosa. Put plainly: Antibacterial activity against Pseudomonas aeruginosa NCDC105 after overnight incubation by single disc method. Format: functional.
The subject of experiment [6] is Staphylococcus aureus. Put plainly: Antibacterial activity against Staphylococcus aureus NCDC 110 after overnight incubation by single disc method. It counts as functional.
For experiment [7], the system named is Staphylococcus aureus. Nature of the experiment: Antibacterial activity against Staphylococcus aureus ATCC 29213 by CLSI agar dilution method. Format: functional.
The subject of experiment [8] is Staphylococcus epidermidis. Put plainly: Antibacterial activity against Staphylococcus epidermidis ATCC 12228 by CLSI agar dilution method. Format: functional.
In another experiment the test system is Klebsiella pneumoniae. Put plainly: Antibacterial activity against Klebsiella pneumoniae ATCC […] by CLSI agar dilution method. Format: functional.
Experiment [9] concerns Staphylococcus epidermidis. Nature of the experiment: Antibacterial activity against methicillin-sensitive Staphylococcus epidermidis by CLSI agar dilution method. It counts as functional.
The subject of a further experiment is Paenibacillus polymyxa. Nature of the experiment: Antibacterial activity against Paenibacillus polymyxa NCDC 64 after overnight incubation by single disc method. It counts as functional.
In experiment [10] the test system is Staphylococcus aureus. Put plainly: Antibacterial activity against methicillin-sensitive Staphylococcus aureus ATCC 25923 after 18 hrs by broth microdilution method. It counts as functional. The settings on record: ATCC 25923, 18 h. (In general: Dilution methods test growth across graded concentrations, often in twofold steps.)
The next experiment deals with Micrococcus luteus. Nature of the experiment: Antibacterial activity against Micrococcus luteus ATCC 10240 after 18 hrs by broth microdilution method. Format: functional. Conditions: ATCC 10240, 18 h.
Experiment [11] concerns Staphylococcus epidermidis. Nature of the experiment: Antibacterial activity against Staphylococcus epidermidis ATCC 12228 after 18 hrs by broth microdilution method. Format: functional. Conditions: ATCC 12228, 18 h.
The test system of experiment [12] is Bacillus cereus. Nature of the experiment: Antibacterial activity against Bacillus cereus ATCC 10876 after 18 hrs by broth microdilution method. Conditions: ATCC 10876, 18 h. Format: functional.
For experiment [13], the system named is Bacillus subtilis. Put plainly: Antibacterial activity against Bacillus subtilis ATCC 6638 after 18 hrs by broth microdilution method. It counts as functional. The settings on record: ATCC 6638, 18 h.
The test system of experiment [14] is Staphylococcus aureus. Put plainly: Antibacterial activity against methicillin-resistant Staphylococcus aureus MIKROBANK 14001 by broth microdilution method. It counts as functional.
For experiment [15], the system named is Staphylococcus aureus. Put plainly: Antibacterial activity against methicillin-sensitive Staphylococcus aureus ATCC 6538 after 18 hrs by broth microdilution method. Format: functional. The settings on record: ATCC 6538, 18 h.
The subject of experiment [16] is Bacillus cereus. Nature of the experiment: Antibacterial activity against Bacillus cereus 709 Roma after 18 to 24 hrs by double microdilution method. Format: functional.
The test system of experiment [17] is Mycolicibacterium smegmatis. Nature of the experiment: Antibacterial activity against Mycobacterium smegmatis ATCC 607 after 48 to 72 hrs by double microdilution method. Format: functional.
Experiment [18] has as its system Escherichia coli. Put plainly: Antibacterial activity against Escherichia coli ATCC 35218 after 18 to 24 hrs by double microdilution method. It counts as functional.
For experiment [19], the system named is Enterococcus faecalis. Nature of the experiment: Antibacterial activity against Enterococcus faecalis ATCC 29212 after 18 to 24 hrs by double microdilution method. Format: functional.
Experiment [20] has as its system Yersinia pseudotuberculosis. Nature of the experiment: Antibacterial activity against Yersinia pseudotuberculosis ATCC 911 after 18 to 24 hrs by double microdilution method. Format: functional.
Experiment [21] deals with Pseudomonas aeruginosa. Nature of the experiment: Antibacterial activity against Pseudomonas aeruginosa ATCC 10145 after 18 to 24 hrs by double microdilution method. It counts as functional.
Experiment [22] relates to Staphylococcus aureus. Nature of the experiment: Antibacterial activity against Staphylococcus aureus ATCC 25923 after 18 to 24 hrs by double microdilution method. Format: functional.
The test system of experiment [23] is Escherichia coli. Nature of the experiment: In vivo antibacterial activity against Escherichia coli NCTC 10419 infected in po dosed mouse administered at 1 and 4 hrs post infection. Format: functional, organism-based.
Experiment [24] concerns Enterococcus faecalis. Put plainly: Potency index, ratio of ampicillin MIC to compound MIC for antibacterial activity against Enterococcus faecalis ATCC 29212. It counts as functional.
The test system of experiment [25] is Staphylococcus aureus. Put plainly: Potency index, ratio of ampicillin MIC to compound MIC for antibacterial activity against Staphylococcus aureus ATCC 25923. It counts as functional.
Experiment [26] concerns Bacillus cereus. Put plainly: Potency index, ratio of ampicillin MIC to compound MIC for antibacterial activity against Bacillus cereus 709 Roma. Format: functional.
Experiment [27] concerns Mycolicibacterium smegmatis. Put plainly: Potency index, ratio of ampicillin MIC to compound MIC for antibacterial activity against Mycobacterium smegmatis ATCC 607. It counts as functional.
Experiment [28] relates to Pseudomonas aeruginosa. Put plainly: Potency index, ratio of ampicillin MIC to compound MIC for antibacterial activity against Pseudomonas aeruginosa ATCC 43288. Format: functional.
Experiment [29] concerns Escherichia coli. Put plainly: Potency index, ratio of ampicillin MIC to compound MIC for antibacterial activity against Escherichia coli ATCC 25922. It counts as functional.
The test system of a further experiment is Candida albicans. Put plainly: Potency index, ratio of ampicillin MIC to compound MIC for antifungal activity against Candida albicans ATCC 60193. Format: functional.
The test system of a further experiment is Saccharomyces cerevisiae. Put plainly: Potency index, ratio of ampicillin MIC to compound MIC for antifungal activity against Saccharomyces cerevisiae RSKK 251. Format: functional.
Experiment [30] deals with Yersinia pseudotuberculosis. Nature of the experiment: Potency index, ratio of ampicillin MIC to compound MIC for antibacterial activity against Yersinia pseudotuberculosis ATCC 911. Format: functional.

What is called MIC is the lowest concentration that inhibits growth of the organism. Read a low MIC as inhibition by little substance. For `COc1c(N2CCNC(C)C2)c(F)cc2c(=O)c(C(=O)O)cn(C3CC3)c12` (stereo unspecified) [GATIFLOXACIN], the MIC with Escherichia coli [1] was 0.06 to 16 µg/mL (≈ 0.16 to 42.6 µM); in the experiment with Bacillus subtilis [2] it was 5 to 100 µg/mL (≈ 13.3 to 266 µM); in the experiment on Staphylococcus aureus [3], 0.06 to 16 µg/mL (≈ 0.16 to 42.6 µM); with Escherichia coli [4], 5 to 100 µg/mL (≈ 13.3 to 266 µM); against Pseudomonas aeruginosa [5], 5 to 100 µg/mL (≈ 13.3 to 266 µM); with Staphylococcus aureus [6], 5 to 100 µg/mL (≈ 13.3 to 266 µM). In addition, the MIC in the experiment with Staphylococcus aureus [7] is 0.06 to 16 µg/mL (≈ 0.16 to 42.6 µM); in experiment [8] it was 0.06 to 16 µg/mL (≈ 0.16 to 42.6 µM); against Klebsiella pneumoniae it was 0.06 to 16 µg/mL (≈ 0.16 to 42.6 µM); in experiment [9], 0.06 to 16 µg/mL (≈ 0.16 to 42.6 µM); with Paenibacillus polymyxa, 5 to 100 µg/mL (≈ 13.3 to 266 µM).

On to `O=C(O)c1cn(C2CC2)c2cc(N3CCN(Cn4nc(-c5cccc(O)c5)n(Cc5ccc(Br)cc5Cl)c4=S)CC3)c(F)cc2c1=O`, for which the MIC (in the experiment on Staphylococcus aureus [10]; in the experiment with Micrococcus luteus; in experiment [11]; in the experiment on Bacillus cereus [12]; with Bacillus subtilis [13]; with Staphylococcus aureus [14]) was 0.01 to 1.32 µM (≈ 0.0074 to 0.977 µg/mL) each time. In addition, the MIC in the experiment with Staphylococcus aureus [15] fell in the range of 0.01 to 1.32 µM (≈ 0.0074 to 0.977 µg/mL).

In the case of `COc1ccccc1N1CCN(Cc2nn(CN3CCN(c4cc5c(cc4F)c(=O)c(C(=O)O)cn5C4CC4)CC3)c(=S)n2Cc2ccccc2)CC1`, the MIC (in the experiment with Bacillus cereus [16]; in experiment [17]; against Escherichia coli [18]; in the experiment on Enterococcus faecalis [19]; in experiment [20]; in the experiment on Pseudomonas aeruginosa [21]) was less than 0.24 µg/mL throughout. Moreover, the MIC against Staphylococcus aureus [22] was less than 0.24 µg/mL.

With `O=C(O)c1cn(C2CC2)c2cc(N3CCN(Cn4nc(CNc5ccc(N6CCN(c7ccc(F)cc7)CC6)c(F)c5)n(-c5ccccc5)c4=S)CC3)c(F)cc2c1=O`, the MIC (against Bacillus cereus [16]; in experiment [17]; in the experiment with Escherichia coli [18]; against Enterococcus faecalis [19]; in experiment [20]; in the experiment with Pseudomonas aeruginosa [21]) was less than 0.24 µg/mL throughout. Moreover, the MIC in the experiment on Staphylococcus aureus [22] is less than 0.24 µg/mL.

In the case of `O=C(CN1CCN(c2cc3c(cc2F)c(=O)c(C(=O)O)cn3C2CC2)CC1)Nc1nc2c(Cl)ccc(Cl)c2s1`, the MIC in the experiment on Bacillus subtilis [2], with Escherichia coli [4], against Pseudomonas aeruginosa [5], against Staphylococcus aureus [6] and with Paenibacillus polymyxa was 3 to 125 µg/mL (≈ 5.08 to 212 µM) each time.

As to `O=C(CN1CCN(c2cc3c(cc2F)c(=O)c(C(=O)O)cn3C2CC2)CC1)Nc1nc2ccc([N+](=O)[O-])cc2s1`, the MIC with Bacillus subtilis [2], with Escherichia coli [4], with Pseudomonas aeruginosa [5], against Staphylococcus aureus [6] and against Paenibacillus polymyxa was 3 to 125 µg/mL (≈ 5.3 to 221 µM) in each case.

For `COc1ccccc1N1CCN(Cc2nn(CN3CCN(c4cc5c(cc4F)c(=O)c(C(=O)O)cn5C4CC4)CC3)c(=O)n2Cc2ccccc2)CC1`, the MIC (against Bacillus cereus [16]; in experiment [17]; against Escherichia coli [18]; against Enterococcus faecalis [19]; in [20]; with Pseudomonas aeruginosa [21]) was less than 0.24 µg/mL throughout. The MIC against Staphylococcus aureus [22] was less than 0.24 µg/mL.

`COc1cc(Cc2cnc(/N=C3\C(=O)N(CN4CCN(c5cc6c(cc5F)c(=O)c(C(=O)O)cn6C5CC5)CC4)c4ccc(C)cc43)nc2N)cc(OC)c1OC` yielded an EC50 in the experiment with Escherichia coli [23] of 0.62 mg/kg.

For `O=C(CN1CCN(c2cc3c(cc2F)c(=O)c(C(=O)O)cn3C2CC2)CC1)Nc1nc2ccc(Cl)cc2s1`, the MIC with Bacillus subtilis [2], against Escherichia coli [4], with Pseudomonas aeruginosa [5], against Staphylococcus aureus [6] and against Paenibacillus polymyxa was 3 to 15 µg/mL (≈ 5.4 to 27 µM) throughout.

Take `COc1ccccc1N1CCN(Cc2nn(CN3CCN(c4cc5c(cc4F)c(=O)c(C(=O)O)cn5C4CC4)CC3)c(=S)n2-c2ccccc2)CC1`: the MIC (against Bacillus cereus [16]; in [17]; against Escherichia coli [18]; against Enterococcus faecalis [19]; in [20]; with Pseudomonas aeruginosa [21]) was less than 0.24 µg/mL throughout. In addition, the MIC in the experiment on Staphylococcus aureus [22] was less than 0.24 µg/mL.

For `O=C(O)c1cn(C2CC2)c2cc(N3CCN(Cn4nc(CN5CCSCC5)oc4=S)CC3)c(F)cc2c1=O`, the Ratio (in the experiment on Enterococcus faecalis [24]; in the experiment on Staphylococcus aureus [25]; in the experiment on Bacillus cereus [26]; in experiment [27]; in the experiment with Pseudomonas aeruginosa [28]; in the experiment on Escherichia coli [29]) was more than 41 in each case. Also, the Ratio (in the experiment with Candida albicans; in the experiment on Saccharomyces cerevisiae; in [30]) was more than 41 in each case.
